± gives the uncertainty stated by the source.
Assay: xn = mol fraction of the nth substance listed

CCCC(O)CC (stereo unspecified) + CO
298.15 K, 101.33 kPa
Details | viscosity [mPa·s]
x2 = 0.1014 | 4.298 ± 0.039
x2 = 0.2029 | 3.945 ± 0.036
x2 = 0.3111 | 3.363 ± 0.031
x2 = 0.4188 | 2.737 ± 0.025
x2 = 0.503 | 2.278 ± 0.021
x2 = 0.6078 | 1.758 ± 0.016
x2 = 0.7072 | 1.383 ± 0.013
x2 = 0.7994 | 1.054 ± 0.01
x2 = 0.9014 | 0.7655 ± 0.0075

OCCCl + CO
viscosity [mPa·s], 101.33 kPa
Details | x1 = 0.096 | x1 = 0.2122 | x1 = 0.2939 | x1 = 0.3927 | x1 = 0.4944 | x1 = 0.598 | x1 = 0.6969 | x1 = 0.7977 | x1 = 0.8997
298.15 K | 0.615 ± 0.017 | 0.777 ± 0.02 | 0.91 ± 0.023 | 1.099 ± 0.027 | 1.321 ± 0.032 | 1.591 ± 0.038 | 1.869 ± 0.043 | 2.13 ± 0.049 | 2.45 ± 0.056
303.15 K | 0.572 ± 0.016 | 0.721 ± 0.019 | 0.834 ± 0.021 | 1.003 ± 0.025 | 1.195 ± 0.029 | 1.434 ± 0.034 | 1.632 ± 0.038 | 1.884 ± 0.044 | 2.14 ± 0.049
308.15 K | 0.529 ± 0.015 | 0.662 ± 0.018 | 0.767 ± 0.02 | 0.913 ± 0.023 | 1.084 ± 0.027 | 1.287 ± 0.031 | 1.456 ± 0.035 | 1.675 ± 0.039 | 1.89 ± 0.044

OCCCl + COC(C)=O
viscosity [mPa·s], 101.33 kPa
Details | x1 = 0.1021 | x1 = 0.2013 | x1 = 0.3049 | x1 = 0.4029 | x1 = 0.5056 | x1 = 0.6047 | x1 = 0.7046 | x1 = 0.7987 | x1 = 0.9014
298.15 K | 0.438 ± 0.004 | 0.501 ± 0.004 | 0.587 ± 0.005 | 0.691 ± 0.005 | 0.844 ± 0.006 | 1.039 ± 0.008 | 1.324 ± 0.01 | 1.688 ± 0.013 | 2.234 ± 0.017
303.15 K | 0.414 ± 0.003 | 0.472 ± 0.004 | 0.555 ± 0.004 | 0.645 ± 0.005 | 0.787 ± 0.006 | 0.954 ± 0.007 | 1.197 ± 0.009 | 1.518 ± 0.011 | 1.978 ± 0.014
308.15 K | 0.392 ± 0.003 | 0.447 ± 0.004 | 0.519 ± 0.004 | 0.606 ± 0.005 | 0.726 ± 0.005 | 0.881 ± 0.006 | 1.094 ± 0.008 | 1.369 ± 0.01 | 1.762 ± 0.012

NC=O + COCCO
101 kPa
Details | viscosity [mPa·s]
303 K, x1 = 0.1585 | 1.679 ± 0.29
303 K, x1 = 0.4194 | 2.286 ± 0.35
303 K, x1 = 0.5295 | 2.443 ± 0.37
303 K, x1 = 0.6283 | 2.625 ± 0.39
303 K, x1 = 0.717 | 2.859 ± 0.41
303 K, x1 = 0.8711 | 2.837 ± 0.41
303 K, x1 = 0.9381 | 2.945 ± 0.42
303.15 K, x1 = 0.1785 | 1.795 ± 0.027
313 K, x1 = 0.2971 | 1.632 ± 0.29
313 K, x1 = 0.4194 | 1.841 ± 0.31
313 K, x1 = 0.5295 | 1.958 ± 0.32
313 K, x1 = 0.6283 | 2.067 ± 0.33
313 K, x1 = 0.717 | 2.223 ± 0.35
313 K, x1 = 0.7978 | 2.339 ± 0.36
313 K, x1 = 0.8711 | 2.226 ± 0.35
318.15 K, x1 = 0.5726 | 1.885 ± 0.029

O[C@@H]1CO[C@H]2[C@@H]1OC[C@@H]2O + C[N+](C)(C)CC(=O)[O-]
Details | viscosity [mPa·s]
298.15 K, 101.33 kPa, x1 = 0.7 | 513.3

OCCCO + C[N+](C)(C)CCO.[Cl-]
viscosity [mPa·s], 101.3 kPa
Details | 293.15 K | 298.15 K | 298.2 K | 303.15 K | 308.15 K | 308.2 K | 313.15 K | 318.15 K | 318.2 K | 323.15 K
x1 = 0.7509 | 69.74 ± 3 | 55.76 ± 2.3 | – | 45.4 ± 1.9 | 37.43 ± 1.6 | – | 31.35 ± 1.3 | 26.52 ± 1.1 | – | 22.62 ± 0.95
x1 = 0.8001 | 61.31 ± 2.6 | 49.49 ± 2.1 | – | 40.7 ± 1.7 | 33.88 ± 1.4 | – | 27.31 ± 1.1 | 23.03 ± 0.97 | – | 19.63 ± 0.82
x1 = 0.8328 | 57.14 ± 2.4 | 46.14 ± 1.9 | – | 37.62 ± 1.6 | 30.92 ± 1.3 | – | 25.67 ± 1.1 | 21.53 ± 0.9 | – | 18.26 ± 0.76
x1 = 0.8567 | 53.95 ± 2.2 | 42.83 ± 1.8 | – | 34.73 ± 1.5 | 28.58 ± 1.2 | – | 24.01 ± 1 | 20.38 ± 0.85 | – | 17.26 ± 0.72
x2 = 0.1667 | – | – | 49.5 ± 2.1 | – | – | 36.9 ± 1.5 | – | – | 27.6 ± 1.1 | –
x2 = 0.2 | – | – | – | 34.45 ± 0.97 | 28.87 ± 0.75 | – | 24.21 ± 0.7 | 20.52 ± 0.57 | – | 17.57 ± 0.5
x2 = 0.25 | – | – | – | 40.05 ± 1.2 | 33.17 ± 0.93 | – | 27.84 ± 0.77 | 23.62 ± 0.59 | – | 20.25 ± 0.57

CCN(CC)CC(=O)Nc1c(C)cccc1C + Cc1ccc(C(C)C)c(O)c1
100 kPa, x2 = 0.5
Details | viscosity [mPa·s]
293.15 K | 177.3 ± 8.2
298.15 K | 111.3 ± 4.1
303.15 K | 73.71 ± 2.1
308.15 K | 51.05 ± 1.3
313.15 K | 36.76 ± 0.93
318.15 K | 27.36 ± 0.67
323.15 K | 20.98 ± 0.51

Cc1cccc(C(C)C)c1 + Cc1ccc(C(C)C)cc1
101 kPa, x2 = 0.4
Details | viscosity [mPa·s]
293.15 K | 0.8 ± 0.1
313.15 K | 0.72 ± 0.02

CC(C)C#N + Cc1ccc(C)cc1
viscosity [mPa·s], 101 kPa
Details | x2 = 0.1003 | x2 = 0.2009 | x2 = 0.3014 | x2 = 0.4041 | x2 = 0.4978 | x2 = 0.6013 | x2 = 0.7001 | x2 = 0.8003 | x2 = 0.8998
303.15 K | 0.474 ± 0.008 | 0.482 ± 0.008 | 0.484 ± 0.008 | 0.498 ± 0.008 | 0.505 ± 0.008 | 0.519 ± 0.008 | 0.531 ± 0.008 | 0.55 ± 0.008 | 0.558 ± 0.008
308.15 K | 0.444 ± 0.008 | 0.453 ± 0.008 | 0.453 ± 0.008 | 0.461 ± 0.008 | 0.473 ± 0.008 | 0.485 ± 0.008 | 0.495 ± 0.008 | 0.507 ± 0.008 | 0.519 ± 0.008

CC(C)C#N + Cc1ccccc1
viscosity [mPa·s], 101 kPa
Details | x2 = 0.1025 | x2 = 0.2009 | x2 = 0.2987 | x2 = 0.4001 | x2 = 0.4983 | x2 = 0.6008 | x2 = 0.6993 | x2 = 0.801 | x2 = 0.8983
303.15 K | 0.463 ± 0.008 | 0.465 ± 0.008 | 0.468 ± 0.008 | 0.474 ± 0.008 | 0.481 ± 0.008 | 0.49 ± 0.008 | 0.499 ± 0.008 | 0.509 ± 0.007 | 0.517 ± 0.007
308.15 K | 0.434 ± 0.008 | 0.437 ± 0.008 | 0.439 ± 0.008 | 0.445 ± 0.008 | 0.45 ± 0.008 | 0.46 ± 0.007 | 0.468 ± 0.007 | 0.478 ± 0.007 | 0.486 ± 0.007
